Measurements reported in patent US10344019B2 (priority 2010, dated 2019).

Experiments:
Assay type in all cases: cell-based
[1] = tested on: Q30R in genotype 1a NS5A, 1a Rluc replicon transfected into Huh-7 cured-51 cells; test: HCV replicon assay, resistance mutant 1a Q30R; settings: Hepatitis C virus, Huh-7, read-out: 1a Q30R
In short: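 Cells were Huh-7 cured-51 transfected with replicon RNA of a genotype 1a H77 RLuc replicon carrying site-directed Q30R in NS5A.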

[2] = tested on: HCV 1b RLuc cells (dicistronic genotype 1b Con1 replicon, RLuc reporter); test: microbe, parasite or virus in culture; settings: Hepatitis C virus, read-out: 1b (nM)
In short: (§1)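 Renilla luciferase HCV replicon cells: dicistronic 1b Con1, 1a H77 or 2a JFH-1 replicons, or a JFH-1 chimera carrying J6 NS5A (M31 present). Compound in DMSO serial dilutions, 72 h incubation, then lysis and luciferase read. EC50 by non-linear regression.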

[3] = tested on: HCV 2b Rluc cells (NS5A chimeric genotype 2a JFH-1 replicon with genotype 2b MD2b-1 NS5A gene, M31 present); test: microbe, parasite or virus in culture; settings: Hepatitis C virus, read-out: 2b
In short: (§2)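 Replicon cells stably carrying the listed RLuc-encoding dicistronic replicons were seeded and treated with DMSO serial dilutions of compound (10 mM stocks) diluted into culture medium. After 72 h, cells were lysed and Renilla luciferase activity measured. EC50 was derived by non-linear regression.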

[4] = tested on: HCV 3a RLuc cells (NS5A chimeric genotype 1b Con1 replicon with consensus genotype 3a NS5A gene); test: microbe, parasite or virus in culture; settings: Hepatitis C virus, read-out: 3a, genotype 3a NS5A chimeric replicon
In short: as §2

[5] = tested on: HCV 2a JFH-1 Rluc cells (dicistronic genotype 2a JFH-1 replicon, RLuc reporter); test: microbe, parasite or virus in culture; settings: Hepatitis C virus, genotype 2a JFH-1 RLuc replicon; read-out: 2a JFH
In short: as §1

[6] = tested on: HCV 4a Rluc cells (NS5A chimeric genotype 1b Con1 replicon with genotype 4a NS5A gene); test: microbe, parasite or virus in culture; settings: Hepatitis C virus, read-out: 4a
In short: as §2

[7] = tested on: HCV 1a RLuc cells (dicistronic genotype 1a H77 replicon, RLuc reporter); test: microbe, parasite or virus in culture; settings: Hepatitis C virus, genotype 1a H77 RLuc replicon; read-out: 1a
In short: as §1

[8] = tested on: HCV 2a Rluc cells (NS5A chimeric genotype 2a JFH-1 replicon with genotype 2a J6 strain NS5A gene, M31 present); test: HCV replicon reporter assay, genotype 2a J6 (M31 present); settings: Hepatitis C virus, read-out: 2a J6
In short: as §1

COC[C@H]1C[C@@H](c2nc3ccc4cc5c(cc4c3[nH]2)OCc2cc(-c3cnc([C@@H]4CCCN4C(=O)[C@@H](NC(=O)OC)C(C)C)[nH]3)ccc2-5)N(C(=O)[C@@H](NC(=O)OC)C(C)C)C1 [Example 495]
EC50 [1]: 1 to 999 pM
EC50 [2]: 0.026 nM
EC50 [3]: 1 to 999 pM
EC50 [4]: 1 to 990 pM
EC50 [5]: 1 to 999 pM
EC50 [6]: 1 to 990 pM
EC50 [7]: 1 to 999 pM
EC50 [8]: 1 to 999 pM

COC(=O)N[C@H](C(=O)N1CCC[C@H]1c1nc2ccc3cc4c(cc3c2[nH]1)OCc1cc(-c2cnc([C@@H]3CCCN3C(=O)[C@H](NC(=O)C3CC3)c3ccccc3)[nH]2)ccc1-4)C(C)C [Example 498]
EC50 [1]: 1 to 999 pM
EC50 [2]: 0.016 nM
EC50 [3]: 1 to 999 pM
EC50 [4]: 1 to 990 pM
EC50 [5]: 1 to 999 pM
EC50 [6]: 1 to 990 pM
EC50 [7]: 1 to 999 pM
EC50 [8]: 1 to 999 pM

COC[C@H]1C[C@@H](c2ncc(-c3ccc(-c4ccc(-c5cnc([C@@H]6CCCN6C(=O)[C@@H](NC(=O)OC)C(C)C)[nH]5)cc4)cc3)[nH]2)N(C(=O)[C@H](NC(=O)OC)c2ccccc2)C1 [Example 500]
EC50 [1]: 1 to 999 pM
EC50 [2]: 0.028 nM
EC50 [3]: 1 to 999 pM
EC50 [4]: 1 to 990 pM
EC50 [5]: 1 to 999 pM
EC50 [6]: 1 to 990 pM
EC50 [7]: 1 to 999 pM
EC50 [8]: 1000 to 44000 pM

COC[C@H]1C[C@@H](c2nc3ccc4cc(-c5ccc6c(ccc7nc([C@@H]8C[C@H]9C[C@H]9N8C(=O)[C@@H](NC(=O)OC)C(C)C)[nH]c76)c5)ccc4c3[nH]2)N(C(=O)[C@H](NC(=O)C2CC2)c2ccccc2)C1 [Example 502]
EC50 [1]: 1 to 999 pM
EC50 [2]: 0.016 nM
EC50 [3]: 1 to 999 pM
EC50 [4]: 1 to 990 pM
EC50 [5]: 1 to 999 pM
EC50 [6]: 1 to 990 pM
EC50 [7]: 1 to 999 pM
EC50 [8]: 1 to 999 pM

COC[C@H]1C[C@@H](c2ncc(-c3ccc(-c4ccc(-c5cnc([C@@H]6CCCN6C(=O)[C@@H](NC(=O)OC)C(C)C)[nH]5)cc4)cc3)[nH]2)N(C(=O)[C@H](NC(=O)C2CC2)c2ccccc2)C1 [Example 506]
EC50 [1]: 1 to 999 pM
EC50 [2]: 0.036 nM
EC50 [3]: 1 to 999 pM
EC50 [4]: 1 to 990 pM
EC50 [5]: 1 to 999 pM
EC50 [6]: 1 to 990 pM
EC50 [7]: 1 to 999 pM
EC50 [8]: 1 to 999 pM

COC[C@H]1C[C@@H](c2nc3ccc4cc(-c5ccc(-c6[nH]c([C@@H]7CCCN7C(=O)[C@H](NC(=O)C7CC7)c7ccccc7)nc6C)cc5)ccc4c3[nH]2)N(C(=O)[C@@H](NC(=O)OC)C(C)C)C1 [Example 525]
EC50 [1]: 1 to 999 pM
EC50 [2]: 0.038 nM
EC50 [3]: 1 to 999 pM
EC50 [4]: 1 to 990 pM
EC50 [5]: 1 to 999 pM
EC50 [6]: 1 to 990 pM
EC50 [7]: 1 to 999 pM
EC50 [8]: 1 to 999 pM

COC[C@H]1C[C@@H](c2ncc(-c3ccc(-c4ccc(-c5cnc([C@@H]6C[C@H]7C[C@H]7N6C(=O)[C@@H](NC(=O)OC)C(C)C)[nH]5)cc4)cc3)[nH]2)N(C(=O)[C@H](NC(=O)C2CC2)c2ccccc2)C1 [Example 527]
EC50 [1]: 1 to 999 pM
EC50 [2]: 0.022 nM
EC50 [3]: 1 to 999 pM
EC50 [4]: 1 to 990 pM
EC50 [5]: 1 to 999 pM
EC50 [6]: 1 to 990 pM
EC50 [7]: 1 to 999 pM
EC50 [8]: 1 to 999 pM

COC(=O)N[C@H](C(=O)N1[C@@H]2C[C@@H]2C[C@H]1c1nc2ccc3cc4c(cc3c2[nH]1)OCc1cc(-c2cnc([C@@H]3CCCN3C(=O)[C@H](NC(=O)OC)c3ccccc3)[nH]2)ccc1-4)C(C)C [Example 536]
EC50 [1]: 1 to 999 pM
EC50 [2]: 0.013 nM
EC50 [3]: 1 to 999 pM
EC50 [4]: 1 to 990 pM
EC50 [5]: 1 to 999 pM
EC50 [6]: 1 to 990 pM
EC50 [7]: 1 to 999 pM
EC50 [8]: 1 to 999 pM

COC[C@H]1C[C@@H](c2nc3ccc4cc5c(cc4c3[nH]2)OCc2cc(-c3cnc([C@@H]4C[C@H]6C[C@H]6N4C(=O)[C@@H](NC(=O)OC)C(C)C)[nH]3)ccc2-5)N(C(=O)[C@H](NC(=O)OC)c2ccccc2)C1 [Example 539]
EC50 [1]: 1 to 999 pM
EC50 [2]: 0.016 nM
EC50 [3]: 1 to 999 pM
EC50 [4]: 1 to 990 pM
EC50 [5]: 1 to 999 pM
EC50 [6]: 1 to 990 pM
EC50 [7]: 1 to 999 pM
EC50 [8]: 1 to 999 pM

COC[C@H]1C[C@@H](c2nc3ccc4cc5c(cc4c3[nH]2)OCc2cc(-c3cnc([C@@H]4CCCN4C(=O)[C@H](NC(=O)OC)c4ccccc4)[nH]3)ccc2-5)N(C(=O)[C@@H](NC(=O)OC)C(C)C)C1 [Example 544]
EC50 [1]: 1 to 999 pM
EC50 [2]: 0.026 nM
EC50 [3]: 1 to 999 pM
EC50 [4]: 1 to 990 pM
EC50 [5]: 1 to 999 pM
EC50 [6]: 1 to 990 pM
EC50 [7]: 1 to 999 pM
EC50 [8]: 1 to 999 pM
